Drawing on ChEMBL document CHEMBL5291721, “A preclinical secondary pharmacology resource illuminates target-adverse drug reaction associations of marketed drugs” (Nat Commun, 2023), this text covers AC50 for 5 compounds.

Experiment [1] has as its target T1, Corticotropin-releasing factor receptor 1 (Homo sapiens, UniProt P34998).
T1 sequence (P34998 whole entry): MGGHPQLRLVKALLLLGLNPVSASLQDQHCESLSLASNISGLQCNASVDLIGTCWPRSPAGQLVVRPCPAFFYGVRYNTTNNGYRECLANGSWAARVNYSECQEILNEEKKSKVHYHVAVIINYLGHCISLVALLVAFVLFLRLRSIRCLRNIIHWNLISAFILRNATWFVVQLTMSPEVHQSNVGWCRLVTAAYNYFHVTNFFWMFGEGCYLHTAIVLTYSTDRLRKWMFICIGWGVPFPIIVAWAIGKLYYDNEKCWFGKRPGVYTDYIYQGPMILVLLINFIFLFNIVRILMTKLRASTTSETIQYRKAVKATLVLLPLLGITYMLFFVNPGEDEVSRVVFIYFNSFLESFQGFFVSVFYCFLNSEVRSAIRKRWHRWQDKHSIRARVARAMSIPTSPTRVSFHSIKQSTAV

The target in experiment [2] is T2, Corticotropin-releasing factor receptor 2 (Homo sapiens, UniProt Q13324).
T2 sequence (Q13324 whole entry): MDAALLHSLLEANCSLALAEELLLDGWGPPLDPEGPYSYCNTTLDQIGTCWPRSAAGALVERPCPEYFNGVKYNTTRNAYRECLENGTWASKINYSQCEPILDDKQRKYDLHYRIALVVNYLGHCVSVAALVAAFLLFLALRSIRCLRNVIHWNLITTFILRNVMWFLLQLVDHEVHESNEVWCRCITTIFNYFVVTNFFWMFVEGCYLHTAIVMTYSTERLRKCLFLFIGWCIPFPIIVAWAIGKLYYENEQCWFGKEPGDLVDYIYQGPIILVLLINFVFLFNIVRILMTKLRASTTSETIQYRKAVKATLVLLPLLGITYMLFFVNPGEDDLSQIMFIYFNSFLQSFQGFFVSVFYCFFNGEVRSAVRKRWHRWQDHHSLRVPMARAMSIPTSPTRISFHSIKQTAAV

In experiment [3] the target is T3, Endothelin receptor type B (Homo sapiens, UniProt P24530).
T3 sequence (P24530 whole entry): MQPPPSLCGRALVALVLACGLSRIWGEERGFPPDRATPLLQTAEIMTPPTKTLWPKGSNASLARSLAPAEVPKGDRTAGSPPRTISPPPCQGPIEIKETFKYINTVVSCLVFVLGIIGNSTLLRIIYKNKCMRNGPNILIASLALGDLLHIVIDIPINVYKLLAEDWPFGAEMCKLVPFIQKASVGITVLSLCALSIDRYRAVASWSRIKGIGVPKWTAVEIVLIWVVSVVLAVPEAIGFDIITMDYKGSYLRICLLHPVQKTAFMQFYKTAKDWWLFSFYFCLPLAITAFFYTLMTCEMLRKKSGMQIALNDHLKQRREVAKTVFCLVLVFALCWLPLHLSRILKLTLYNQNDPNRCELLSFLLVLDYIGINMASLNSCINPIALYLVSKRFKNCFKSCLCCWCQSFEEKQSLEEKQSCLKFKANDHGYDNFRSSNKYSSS

Experiment [4] addresses Glucagon receptor (Homo sapiens, UniProt P47871).
Experiment [5] concerns the target T4, Progesterone receptor (Homo sapiens, UniProt P06401).
T4 sequence (P06401 whole entry): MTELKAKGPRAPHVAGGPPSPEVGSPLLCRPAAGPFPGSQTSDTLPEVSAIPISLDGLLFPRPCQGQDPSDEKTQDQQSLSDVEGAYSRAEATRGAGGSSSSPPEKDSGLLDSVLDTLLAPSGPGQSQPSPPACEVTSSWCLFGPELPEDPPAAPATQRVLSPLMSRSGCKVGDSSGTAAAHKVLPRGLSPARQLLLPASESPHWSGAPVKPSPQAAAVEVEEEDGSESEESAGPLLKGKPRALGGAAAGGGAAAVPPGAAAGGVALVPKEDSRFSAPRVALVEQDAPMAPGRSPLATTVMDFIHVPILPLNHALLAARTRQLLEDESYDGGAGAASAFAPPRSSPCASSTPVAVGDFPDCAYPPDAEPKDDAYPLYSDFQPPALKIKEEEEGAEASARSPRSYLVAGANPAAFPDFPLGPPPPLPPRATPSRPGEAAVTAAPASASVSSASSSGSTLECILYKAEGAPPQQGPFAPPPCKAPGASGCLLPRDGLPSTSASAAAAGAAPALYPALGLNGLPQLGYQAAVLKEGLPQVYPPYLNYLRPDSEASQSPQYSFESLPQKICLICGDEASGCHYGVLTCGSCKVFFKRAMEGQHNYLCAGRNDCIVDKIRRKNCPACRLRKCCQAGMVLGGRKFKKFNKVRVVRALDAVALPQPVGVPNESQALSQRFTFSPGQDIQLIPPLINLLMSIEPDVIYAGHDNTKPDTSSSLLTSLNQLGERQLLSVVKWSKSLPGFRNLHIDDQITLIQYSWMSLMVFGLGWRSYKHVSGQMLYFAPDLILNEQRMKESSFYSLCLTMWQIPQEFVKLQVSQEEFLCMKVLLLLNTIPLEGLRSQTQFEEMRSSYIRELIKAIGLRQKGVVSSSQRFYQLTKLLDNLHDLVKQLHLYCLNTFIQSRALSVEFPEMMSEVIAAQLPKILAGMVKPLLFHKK

Experiment [6] addresses T5, 5-hydroxytryptamine receptor 1A (Homo sapiens, UniProt P08908).
T5 sequence (P08908 whole entry): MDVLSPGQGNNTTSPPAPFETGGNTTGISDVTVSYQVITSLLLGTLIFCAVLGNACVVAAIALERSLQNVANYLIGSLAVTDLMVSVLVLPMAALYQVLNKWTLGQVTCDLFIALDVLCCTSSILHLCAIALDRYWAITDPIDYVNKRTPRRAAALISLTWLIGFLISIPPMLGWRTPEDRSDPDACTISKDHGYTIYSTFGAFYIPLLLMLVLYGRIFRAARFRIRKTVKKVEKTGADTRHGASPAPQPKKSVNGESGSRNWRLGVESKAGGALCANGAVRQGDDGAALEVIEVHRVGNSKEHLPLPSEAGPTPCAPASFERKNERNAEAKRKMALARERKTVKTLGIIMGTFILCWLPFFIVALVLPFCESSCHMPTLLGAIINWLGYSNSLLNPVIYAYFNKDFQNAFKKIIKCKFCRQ
Further: assay procedure not described here.

Chain of Glucagon receptor (P47871 whole entry): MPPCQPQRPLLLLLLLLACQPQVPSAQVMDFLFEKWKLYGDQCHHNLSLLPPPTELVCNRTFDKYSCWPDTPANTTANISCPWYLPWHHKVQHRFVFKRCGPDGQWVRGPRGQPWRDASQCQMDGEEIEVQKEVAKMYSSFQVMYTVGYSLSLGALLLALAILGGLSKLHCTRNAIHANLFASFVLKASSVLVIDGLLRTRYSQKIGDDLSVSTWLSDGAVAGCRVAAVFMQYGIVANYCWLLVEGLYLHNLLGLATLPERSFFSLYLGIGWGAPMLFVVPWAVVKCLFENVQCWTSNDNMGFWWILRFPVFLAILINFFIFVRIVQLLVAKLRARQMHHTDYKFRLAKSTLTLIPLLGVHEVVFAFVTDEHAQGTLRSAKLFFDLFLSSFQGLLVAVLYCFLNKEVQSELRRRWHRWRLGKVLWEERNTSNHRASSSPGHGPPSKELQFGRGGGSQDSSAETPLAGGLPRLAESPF

As to `CN1C(=O)CN=C(c2ccccc2F)c2cc([N+](=O)[O-])ccc21` [FLUNITRAZEPAM], the AC50 (in general, the midpoint of the concentration-response curve, whichever way the signal moves) was above 30 µM in experiment [1]; above 30 µM in experiment [2]; above 30 µM in experiment [3]; above 30 µM in experiment [4]; above 10 µM in experiment [5]; above 10 µM in experiment [6].
Turning to `CN1C2CCCC1CC(NC(=O)c1nn(C)c3ccccc13)C2` (stereo not given) [GRANISETRON], the AC50 in experiment [1] is above 30 µM; in experiment [2] it was above 30 µM; in experiment [3] it was above 30 µM; in experiment [4] it was above 30 µM; in experiment [5] it was above 30 µM; in experiment [6], above 10 µM.
For `COc1ccc2c3c1O[C@H]1C(=O)CC[C@H]4[C@@H](C2)N(C)CC[C@]314` [HYDROCODONE], the AC50 in experiment [1] was above 30 µM; in experiment [2], above 30 µM; in experiment [3] it was above 30 µM; in experiment [4], above 30 µM; in experiment [5], above 30 µM; in experiment [6], above 10 µM.
For the compound `CC1NCCOC1c1ccccc1` (stereo not given) [PHENMETRAZINE], the AC50 in experiment [1] was above 30 µM; in experiment [2], above 30 µM; in experiment [3], above 30 µM; in experiment [4] it was above 30 µM; in experiment [5], above 30 µM; in experiment [6], above 10 µM.
Turning to `CC(C)(N)Cc1ccccc1` [PHENTERMINE], the AC50 in experiment [1] was above 30 µM; in experiment [2], above 30 µM; in experiment [3], above 30 µM; in experiment [4], above 30 µM; in experiment [5], above 30 µM; in experiment [6] it was above 10 µM.
